The record followed here is patent US20110039920A1, “INHIBITORS OF IKK-BETA SERINE-THERONINE PROTEIN KINASE” (CHROMA THERAPEUTICS LTD., priority 2008, published 2011).

One assay concerns THP-1 TNFα release. The assay is described as follows: LPS-stimulation of THP-1 cells, TNF-α by ELISA. It is filed as cell-based. As to conditions: Homo sapiens, inhibitor 2 hrs before LPS 1 μg/ml, 6 hrs, read-out: Inhibitor activity versus THP-1 TNFα release. As to the method: THP-1 cells were plated in 100 μl at a density of 4×10^4 cells/well in V-bottomed 96 well tissue culture treated plates and incubated at 37° C. in 5% CO2 for 16 hrs. 2 hrs after the addition of the inhibitor in 100 μl of tissue culture media, the cells were stimulated with LPS (E coli strain 005:65, Sigma) at a final concentration of 1 μg/ml and incubated at 37° C. in 5% CO2 for 6 hrs. TNF-α levels were measured from cell-free supernatants by sandwich ELISA (R&D Systems #QTA00B)
A general note: An ELISA detects its analyte on a solid surface through an enzyme-linked reagent.

In assay [1] the test system is human whole blood TNFα release. The experiment in a line: LPS-stimulation of human whole blood, TNF-α by ELISA. It is filed as cell-based. As to conditions: inhibitor 2 hrs before LPS 100 ng/ml, 6 hrs, read-out: Inhibitor activity versus human whole blood TNFα release. The procedure: Whole blood was taken by venous puncture using heparinised vacutainers (Becton Dickinson) and diluted in an equal volume of RPMI1640 tissue culture media (Sigma). 100 μl was plated in V-bottomed 96 well tissue culture treated plates. 2 hrs after the addition of the inhibitor in 100 μl of RPMI1640 media, the blood was stimulated with LPS (E coli strain 005:B5, Sigma) at a final concentration of 100 ng/ml and incubated at 37° C. in 5% CO2 for 6 hrs. TNF-α levels were measured from cell-free supernatants by sandwich ELISA (R&D Systems #QTA00B)

Turning to `C[C@H](NCc1cccc(-c2cc(C(N)=O)c(NC(N)=O)s2)c1)C(=O)OC1CCCC1` [Example 11, Cyclopentyl N-{3-[4-carbamoyl-5-(carbamoylamino)-2-thienyl]benzyl}-L-alaninate], the IC50 (in the assay with THP-1 TNFα release; in assay [1]) was 500 to 1000 nM throughout.
